Patent publication US9839690B2, “Singlet oxygen-labile linkers and methods of production and use thereof” (The Board of Regents of the University of Oklahoma, priority 2012, dated 2017)

Legend:
[1] = Photophysical properties of selected compounds in DMSO; type: physicochemical
[2] = Relative rates of photooxidation of the linker in CMP-L-CA4 with ROS quenchers; type: physicochemical; conditions: 1.2 μmol each in CDCl3, 690 nm, 10 mW/cm^2
Procedure: The reaction mixture was irradiated by using diode laser (690 nm, 10 mW/cm^2). The oxidation of the olefin with SO was monitored every 5 min by the decrease of the olefinic peaks of the aminoacrylate in ^1H-NMR

[3] = Oxidation of aminoacrylate linker model compound with ROS quenchers; type: physicochemical; conditions: model compound 9 mM, CMP-OMe 9 mM, quencher 9 mM, 690 nm, 100 mW/cm^2
Procedure: To determine the effect of specific ROS quenchers on the oxidation of the aminoacrylate linker, the rate of oxidation of aminoacrylate linker was determined by ^1H-NMR using the vinyl proton of the aminoacrylate linker (FIG. 20). A solution of (E)-N-phenyl-3-(piperidin-1-yl)acrylamide (9 mM), a photosensitizer (CMP-OMe, 9 mM), a ROS quencher (0 or 9 mM) was in a CDCl3 solvent in a NMR tube was exposed to the irradiation (690 nm diode laser, 100 mW/cm^2) and ^1H-NMR was taken every 5 min. The ROS quencher was either a singlet oxygen quencher (DABCO or β-Carotene) or a superoxide quencher (1,4-Benzoquinone) and the photosensitizer was CMP-OMe (5-(4-methoxyphenyl)-10,15,20-triphenyl-21,23-dithiaporphyrin).

[4] = 1H-NMR of drugs and model linker compound with CMP-OMe before and after irradiation; type: physicochemical; conditions: 1H-NMR
Description: The cleavage of aminoacrylate linkers after irradiation was supported by the increased coumarin fluorescence of 9 by irradiation (FIGS. 14-21). The unique peak of each compound was integrated against the peak of CMP-OMe (four protons of CMP-OMe at 9.7 ppm, FIG. 14), which was known to be inert to singlet oxygen oxidation. […] However, we observed 77% decrease of the proton peak of the aminoacrylate linker after the irradiation (FIG. 21). […] PD 9 had negligible coumarin emission compared to that of free coumarin at the equimolar concentration. In the presence of 10 μM of 9, MCF-7 cells were incubated for 24 h to activate dPS. Then, the samples were irradiated by visible light (540±10 nm, 8 mW/cm^2, 30 min). […] The released free coumarin was also detected and quantified by HPLC based on the standard curve of free coumarin. As such, almost 99% of 9 released coumarin while only 64% of dPS of 9 were activated when irradiated.

MCF-7 cells [5] = test: Dark toxicity, MTT (Example 5); type: cell-based
Procedure: It seemed that the bulky groups, CMP-L and CMP-NCL, reduced the cytotoxic activity of CA4, presumably through the interference of its binding to tubulin as estimated by the modeling study.
(§1) MCF-7 cells were maintained in minimum essential medium (α-MEM) supplemented with 10% bovine growth serum, 2 mM L-glutamine, 50 units/mL penicillin G, 50 μg/mL streptomycin and 1.0 μg/mL fungizone. MCF-7 cells (5,000 cells/well) were seeded on 96-well plates in the medium and then incubated for 24 h at 37° C. in 5% CO2. Stock solutions (2 mM) were prepared in DMSO. The stocks were further diluted with medium to get necessary final concentrations. The diluted solution (10 μL) was then added to each well (190 μL). The plates were incubated for 24 h and then removed from the incubator. For the phototoxicity study: The plate without a cover was placed on an orbital shaker (Lab-line, Barnstead International) and irradiated by using a diode laser (690 nm, 5.6 mW/cm^2) for 30 min. To ensure uniformity of the light during the irradiation, each plate was shaken gently on an orbital shaker. For the dark toxicity study: Plates were kept in the dark for 30 min, and then returned to the incubator. Cell viability was determined after 3 days by using the MTT assay. Briefly, a 10 μL solution of MTT (10 mg in 1 mL PBS buffer) was added to each well and the plate was incubated for 4 h. Then, the MTT solution was removed and the cells were dissolved in 200 μL of DMSO and the absorbance within each well was measured at 570 nm with background subtraction at 650 nm. The cell viability was then quantified by measuring the absorbance of the treated wells compared to that of the untreated wells (controls) and expressed as a percentage.

MCF-7 cells [6] = test: Phototoxicity, MTT (Example 5); type: cell-based
Procedure: On the other hand, only a photodynamic effect could damage cells by [CMP-NCL-CA4+hv].
as §1, with “For the dark toxicity study: Plates were kept in the dark for 30 min, and then returned to the incubator.” left out, “Briefly, a 10 μL solution of MTT (10 mg in 1 mL PBS buffer) was added to each well and the plate was incubated for 4 h.” left out

tubulin = target: T1, tubulin (Sus scrofa, UniProt P02554); test: Fluorescence-based tubulin polymerization assay; type: biochemical; conditions: 3 μM
T1 construct: purchased Cytoskeleton, Inc. BK011P
Procedure: Paclitaxel and CA4 were used as positive control drugs (a polymerization enhancer and an inhibitor, respectively) in addition to the negative control group (FIG. 32).
The fluorescence-based tubulin polymerization was determined by using a kit supplied by Cytoskeleton, Inc. (cat #=BK011P). Its basic principle is that the fluorescence reporter increases as it is incorporated into microtubules during the course of polymerization. The assay was performed following the experimental procedure as described in version 2.1 of the tubulin polymerization assay kit manual. Briefly, the test drug (final concentration=3 μM) was added to a mixture of tubulin and GTP in a buffer solution, and the reaction mixture was incubated at 37° C. Fluorescence was monitored (excitation=360 nm and emission=450 nm) by using a fluorescence plate reader (SpectraMax Gemini EM, Molecular device). Paclitaxel and CA4 were included in the assay as positive controls in addition to the negative control (vehicle only).

[7] = literature (ref 88); cited from earlier work
[8] = Photooxygenation of model compounds 2-16 with dithiaporphyrin photosensitizer, 690 nm diode laser (Example 3); type: physicochemical
Procedure: To evaluate the rate of oxidation by singlet oxygen, the model compounds 2-7 were irradiated by a diode laser (690 nm, 200 mW/cm2, 25 min) in the presence of the photosensitizer 5-(4-methoxyphenyl)-10,15,20-[…]-21,23-dithiaporphyrin (FIG. 11 and Table 5). The reaction of olefins with singlet oxygen was monitored by the decrease of olefinic proton peaks in the ^1H-NMR spectra. (Z)-1,2-Bis(phenylthio)ethylene was used as positive control. […] Oxidation of only the nitrogen analogues is probably due to electron donation from the nitrogen to the carbonyl group making the olefinic bond electron rich for attack by singlet oxygen.
In a NMR tube, an olefin (0.0048 mmol) was dissolved in CDCl3 (0.5 mL). The photosensitizer compound (32), 3 mg, 0.0048 mmol] was added to this solution. […] The reaction of olefins with singlet oxygen was monitored by the decrease of olefinic peaks in ^1H-NMR spectra. In the case of compound 14, 15 and 16 no photosensitizer was added.

[9] = Photooxidation of 1,2-diheteroatom-substituted olefins with CMP-OMe, 690 nm diode laser (Example 2); type: physicochemical
Procedure: In a NMR tube, an olefin (0.0048 mmol) was dissolved in CDCl3 (0.5 mL). The photosensitizer [5-(4-methoxyphenyl)-10,15,20-triphenyl-21-23-dithiaporphyrin, CMP-OMe, 3 mg, 0.0048 mmol] was added to this solution. Then, the reaction mixture was irradiated for 15 min using a diode laser (690 nm, 200 mW/cm^2). The reaction of olefins with singlet oxygen was monitored by the decrease of olefinic peaks in ^1H-NMR spectra. The formation of the photooxidation products were also determined by appearance of the formate (or thioformate) peaks in ^1H-NMR spectra.
To examine the oxidation rate of these electron-rich alkenes with singlet oxygen (Scheme 4), compounds 6, 8, and 10 were irradiated in the presence of 5-(4-methoxyphenyl)-10,15,20-triphenyl-21,23-dithiaporphyrin as a photosensitizer.^53 All experiments were performed following the standard procedure previously set with a slight modification by using a 690 nm diode laser source (200 mW/cm^2).^35 In the experiments, the amount of sensitizer used was not catalytic. Here, the ratio of olefin and photosensitizer used was 1:1 to mimic the situation of prodrug where the olefinic linker could be used for connecting one drug molecule to one photosensitizer molecule.^7,35 The reaction solutions were irradiated for 15 min and monitored every 5 min using olefinic peaks in ^1H-NMR each time to monitor the progress of the reactions. Upon the oxidation by singlet oxygen, the olefinic peaks decreased.

[10] = 0 min, 690 nm diode laser, 200 mW/cm^2, CDCl3, no added photosensitizer for 14, 15, 16

T1 sequence (P02554 whole entry): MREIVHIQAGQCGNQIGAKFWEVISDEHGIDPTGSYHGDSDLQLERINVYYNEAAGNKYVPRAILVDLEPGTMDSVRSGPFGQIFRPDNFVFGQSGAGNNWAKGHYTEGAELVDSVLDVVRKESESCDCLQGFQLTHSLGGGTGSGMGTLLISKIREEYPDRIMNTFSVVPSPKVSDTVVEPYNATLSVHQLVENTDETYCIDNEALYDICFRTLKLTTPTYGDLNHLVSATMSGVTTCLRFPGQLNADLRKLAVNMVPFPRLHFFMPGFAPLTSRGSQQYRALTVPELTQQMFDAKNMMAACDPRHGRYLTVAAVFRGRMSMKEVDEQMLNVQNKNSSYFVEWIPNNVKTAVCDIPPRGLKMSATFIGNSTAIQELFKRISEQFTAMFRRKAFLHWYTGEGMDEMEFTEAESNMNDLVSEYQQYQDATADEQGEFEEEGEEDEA
T1 sequence (P02550 whole entry partner): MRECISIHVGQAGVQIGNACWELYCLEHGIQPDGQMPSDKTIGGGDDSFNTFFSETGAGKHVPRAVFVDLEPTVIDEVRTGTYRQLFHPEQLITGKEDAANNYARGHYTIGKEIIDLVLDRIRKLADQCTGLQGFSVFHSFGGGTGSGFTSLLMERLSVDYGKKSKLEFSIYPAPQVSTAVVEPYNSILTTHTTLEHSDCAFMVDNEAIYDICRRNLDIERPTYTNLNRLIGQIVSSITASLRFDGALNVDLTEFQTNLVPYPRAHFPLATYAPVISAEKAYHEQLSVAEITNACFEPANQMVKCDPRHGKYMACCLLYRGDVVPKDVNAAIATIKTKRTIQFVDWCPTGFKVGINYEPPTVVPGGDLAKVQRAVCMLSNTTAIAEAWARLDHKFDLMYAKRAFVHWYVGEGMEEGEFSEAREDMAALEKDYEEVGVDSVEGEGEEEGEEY

Molecule: 5-(6) carboxy-fluorescein
- Extinction Coefficient [1]: 80000 M⁻¹ cm⁻¹
- FQY (φ), fluorescence quantum yield [1]: 0.90
- emax (emission maximum) [1]: 525 nm
- λmax (absorption maximum) [1]: 462 nm

Molecule: O=C1C=CC(=O)C=C1 [1,4-benzoquinone]
- Effect of ROS quencher on oxidation of aminoacrylate linker of CMP-L-CA4 [2]: did not have any effect on the oxidation of the aminoacrylate linker
- Effect of ROS quencher on oxidation of the aminoacrylate linker [3]: did not make any delay of the oxidation of the linker

Molecule: Cc1cc(=O)oc2cc(O)ccc12 [7-hydroxy-4-methyl-coumarin]
- Oxidation under the irradiation condition [4]: not oxidized at all
- Extinction Coefficient [1]: 15800 M⁻¹ cm⁻¹
- FQY (φ), fluorescence quantum yield [1]: 0.14
- emax (emission maximum) [1]: 378 nm
- λmax (absorption maximum) [1]: 325 nm

Molecule: COc1ccc(/C=C\c2cc(OC)c(OC)c(OC)c2)cc1OCCCN1CCN(C(=O)COc2ccc(-c3c4nc(c(-c5ccccc5)c5ccc(s5)c(-c5ccccc5)c5nc(c(-c6ccccc6)c6ccc3s6)C=C5)C=C4)cc2)CC1 [CMP-NCL-CA4]
- IC50 (MCF-7 cells [5]; MCF-7, dark, 3 days, read-out: IC50D (dark toxicity)): 1.8 µM
- Reduction of cytotoxicity relative to CA4 (MCF-7 cells [5]; dark): 200 fold
- Increase of cytotoxicity after irradiation (MCF-7 cells [6]; IC50 dark vs irradiated): 1.7 fold
- IC50 (MCF-7 cells [6]; MCF-7, 690 nm, 5.6 mW/cm^2, 30 min, read-out: IC50 after irradiation (phototoxicity)): 1.06 µM
- Inhibition of tubulin polymerization (tubulin; 1 h incubation at 37° C.): 9%

Molecule: C1CN2CCN1CC2 [DABCO, 1,4-diazabicyclo[2.2.2]octane]
- Singlet oxygen quenching rate constant k [7]: 2.6e+08 M⁻¹ s⁻¹
- Effect of ROS quencher on oxidation of aminoacrylate linker of CMP-L-CA4 [2]: dramatically delayed the oxidation of aminoacrylate
- Effect of ROS quencher on oxidation of the aminoacrylate linker [3]: effectively delayed the oxidation of the aminoacrylate linker

Molecule: C(=C/Sc1ccccc1)/Sc1ccccc1 [control, (Z)-1,2-Bis(phenylthio) ethene]
- Percentile of remaining compound [8, 10]: 100
- Percentile of remaining compound ([8]; 5 min): 70
- Percentile of remaining compound ([8]; 10 min): 59
- Percentile of remaining compound ([8]; 15 min): 41
- Percentile of remaining compound ([8]; 20 min): 23
- Percentile of remaining compound ([8]; 25 min): 13
- Decrease of olefinic proton peaks (photo-oxidation) ([8]; 25 min of irradiation): 87%
- Remaining olefins (%) ([9]; 0 min, CMP-OMe, 690 nm, 200 mW/cm^2, CDCl3): 100%
- Remaining olefins (%) ([9]; 5 min): 38%
- Remaining olefins (%) ([9]; 10 min): 11%
- Remaining olefins (%) ([9]; 15 min): 0%

Molecule: CC(=O)O[C@H]1C(=O)[C@@]2(C)[C@H]([C@H](OC(=O)c3ccccc3)[C@]3(O)C[C@H](OC(=O)[C@H](O)[C@@H](NC(=O)c4ccccc4)c4ccccc4)C(C)=C1C3(C)C)[C@]1(OC(C)=O)CO[C@@H]1C[C@@H]2O [paclitaxel]
- Pattern of kinetic trace of tubulin polymerization (tubulin): enhancer

Molecule: CC1=C(/C=C/C(C)=C/C=C/C(C)=C/C=C/C=C(C)/C=C/C=C(C)/C=C/C2=C(C)CCCC2(C)C)C(C)(C)CCC1 [β-carotene]
- Singlet oxygen quenching rate constant k [7]: 1.2e+10 M⁻¹ s⁻¹
- Effect of ROS quencher on oxidation of aminoacrylate linker of CMP-L-CA4 [2]: dramatically delayed the oxidation of aminoacrylate
- Effect of ROS quencher on oxidation of the aminoacrylate linker [3]: effectively delayed the oxidation of the aminoacrylate linker

Molecule: (E)-((13S)-13-Methyl-17-oxo-7,8,9,11,12,13,14,15,16,17-decahydro-6H cyclopenta[a] phenanthren-3-yl)3-(4-((2-phenoxy-10,15,20-triphenyl-21,23-dithiaporphyrinacetoxy)methyl) piperidin-1-yl)acrylate [Compound 16 (Example 3)]
- Percentile of remaining compound [8, 10]: 100
- Percentile of remaining compound ([8]; 5 min): 60
- Percentile of remaining compound ([8]; 10 min): 10
- Release of parent molecule after irradiation ([8]; GC-MS / SI): successfully released Estrone
- Photo-oxidation ([8]; in 10 min): 90%
